The source made the active and inactive calls. No cut-off for these calls is given here.
Assays:
RAW264.7 [1] = experiment: Inhibition of MCP1-induced chemotaxis in mouse RAW264.7 cells at 25 ug/mL relative to control; format: functional
Mus musculus [2] = experiment: Effect on serum alanine aminotransaminase level in concanavalin A-induced acute hepatitis model of BALB/c mouse at 50 mg/kg, po treated 0.5 hrs after concanavalin A challenge measured after 20 hrs (Rvb= 5734.5 +/- 2599.5); format: functional
RAW264.7 [3] = experiment: Inhibition of MCP1-induced chemotaxis in mouse RAW264.7 cells; format: functional, cell-based
Mus musculus [4] = experiment: Effect on serum aspartate aminotransaminase level in concanavalin A-induced acute hepatitis model of BALB/c mouse at 50 mg/kg, po treated 0.5 hrs after concanavalin A challenge measured after 20 hrs (Rvb= 4997.9 +/- 2619.6); format: functional
Mus musculus [5] = experiment: Decrease in concanavalin A-induced hepatic cell necrosis in acute hepatitis model of BALB/c mouse at 50 mg/kg, ig treated 0.5 hrs after concanavalin A challenge measured after 20 hrs by H and E staining based histopathology study; format: functional, organism-based; parameters: dose 50 mg/kg
[6] = Tmax in BALB/c mouse at 30 mg/kg, po; format: ADME, organism-based; parameters: dose 30 mg/kg, route oral; conditions: in vivo
Mus musculus [7] = experiment: Toxicity in BALB/c mouse liver assessed as change in transaminase level at 50 mg/kg, ig after 20 hrs by H and E staining based histopathology study; format: organism-based; parameters: dose 50 mg/kg, route intragastric; conditions: in vivo, po
Mus musculus [8] = experiment: Toxicity in BALB/c mouse assessed as pathological changes in kidney at 50 mg/kg, ig after 20 hrs by H and E staining based histopathology study; format: organism-based; parameters: dose 50 mg/kg, route intragastric; conditions: in vivo, po
Mus musculus [9] = experiment: Toxicity in BALB/c mouse assessed as pathological changes in spleen at 50 mg/kg, ig after 20 hrs by H and E staining based histopathology study; format: organism-based; parameters: dose 50 mg/kg, route intragastric; conditions: in vivo, po
[10] = Half life in BALB/c mouse at 30 mg/kg, po; format: ADME, organism-based; parameters: dose 30 mg/kg, route oral; conditions: in vivo
[11] = Oral bioavailability in BALB/c mouse at 30 mg/kg; format: ADME, organism-based; conditions: in vivo
Mus musculus [12] = experiment: Plasma concentration in BALB/c mouse at 30 mg/kg, po; format: ADME, organism-based; parameters: dose 30 mg/kg, route oral; conditions: in vivo
Mus musculus [13] = experiment: Toxicity in BALB/c mouse assessed as pathological changes in heart at 50 mg/kg, ig after 20 hrs by H and E staining based histopathology study; format: organism-based; parameters: dose 50 mg/kg, route intragastric; conditions: in vivo, po
Mus musculus [14] = experiment: Toxicity in BALB/c mouse assessed as pathological changes in liver at 50 mg/kg, ig after 20 hrs by H and E staining based histopathology study; format: organism-based; parameters: dose 50 mg/kg, route intragastric; conditions: in vivo, po
Mus musculus [15] = experiment: Toxicity in BALB/c mouse assessed as pathological changes in lung at 50 mg/kg, ig after 20 hrs by H and E staining based histopathology study; format: organism-based; parameters: dose 50 mg/kg, route intragastric; conditions: in vivo, po

SMILES | inhibition at 25 µg/mL (RAW264.7 [1]) | other results
O=C1NC(=O)C(=Cc2ccc(O)cc2)C(=O)N1 | 4.3% | –
O=C1NC(=S)NC(=O)C1=Cc1ccc(Br)cc1 | 4.3% | –
O=C1NC(=O)/C(=C/c2ccc3nccnc3c2)S1 | 36.9% | Activity (Mus musculus [2]): 1187.5 U/L; IC50 (RAW264.7 [3]): 5.31 µM; Activity (Mus musculus [4]): 1084.5 U/L
O=C1NC(=O)C(=Cc2ccc(Br)cc2)C(=O)N1 | 5.7% | –
O=C1NC(=O)/C(=C/c2ccc(O)cc2)S1 | 25.1% | –
O=C1C/C(=C\c2ccccc2)C(=O)N1 | 5.7% | –
COc1ccc(/C=C2\NC(=O)NC2=O)cc1 | 19.9% | –
O=C1C/C(=C\c2ccc(Br)cc2)C(=O)N1 | 14.3% | –
O=C1NC(=O)/C(=C/c2ccc(Br)cc2)S1 | 16.9% | –
O=C1NC(=O)C(=Cc2cccc(O)c2)C(=O)N1 | 15% | –
O=C1NC(=O)/C(=C/c2ccc(Br)cc2)N1 | 14% | –
O=C1NC(=O)/C(=C/c2ccc(O)cc2)N1 [4-HYDROXYPHENYLMETHYLENE HYDANTOIN] | 13% | –
CN(C)c1ccc(/C=C2\NC(=O)NC2=O)cc1 | 18.6% | –
COc1ccc(/C=C2\SC(=N)NC2=O)cc1 | 18.6% | –
N=C1NC(=O)/C(=C/c2ccc(Br)cc2)S1 | 16.6% | –
O=C1NC(=O)C(=Cc2ccccc2O)C(=O)N1 | 5.8% | –
COc1cc(/C=C2\CC(=O)NC2=O)ccc1O | 39.5% | Activity (Mus musculus [2]): 3304.1 U/L; IC50 (RAW264.7 [3]): 20.5 µM; Activity (Mus musculus [4]): 3126.9 U/L
O=C1NC(=S)NC(=O)C1=Cc1ccc(Cl)cc1 | 4.1% | –
COc1ccc(C=C2C(=O)NC(=O)NC2=O)cc1 | 6.2% | –
O=C1C/C(=C\c2ccc(O)cc2)C(=O)N1 | 8.4% | –
N=C1NC(=O)/C(=C/c2ccc(Cl)cc2)S1 | 13% | –
COc1ccc(/C=C2\SC(=N)NC2=O)cc1OC | 9.4% | –
COc1ccc(C=C2C(=O)NC(=S)NC2=O)cc1OC | 14.2% | –
CN(C)c1ccc(/C=C2\SC(=O)NC2=O)cc1 | 15.8% | –
CN(C)c1ccc(/C=C2\CC(=O)NC2=O)cc1 | 15.7% | –
O=C1NC(=S)NC(=O)C1=Cc1ccccc1 | 10.2% | –

SMILES | inhibition at 25 µg/mL (RAW264.7 [1]) | other results
CN(C)c1ccc(/C=C2\SC(=N)NC2=O)cc1 | 14% | –
COc1ccc(/C=C2\NC(=O)NC2=O)cc1OC | 8.7% | –
N=C1NC(=O)/C(=C/c2ccccc2)S1 | 10.1% | –
O=C1NC(=O)C(=Cc2ccccc2)C(=O)N1 | 5.7% | –
O=C1C/C(=C\c2cccc(O)c2)C(=O)N1 | 11.4% | –
O=C1C/C(=C\c2ccc(Cl)cc2)C(=O)N1 | 17.9% | –
CN(C)c1ccc(C=C2C(=O)NC(=S)NC2=O)cc1 | 35.7% | Activity (Mus musculus [5]): Active; Activity (Mus musculus [2]): 2930.2 U/L; IC50 (RAW264.7 [3]): 7.2 µM; Activity (Mus musculus [4]): 2072.8 U/L
O=C1NC(=O)/C(=C/c2cccc(O)c2)N1 | 4.4% | –
O=C1NC(=O)/C(=C/c2cccc(O)c2)S1 | 14.4% | –
CN(C)c1ccc(C=C2C(=O)NC(=O)NC2=O)cc1 | 6.2% | –
O=C1NC(=O)C(=Cc2ccc(Cl)cc2)C(=O)N1 | 4.1% | –
COc1ccc(/C=C2\CC(=O)NC2=O)cc1 | 13.3% | –
COc1ccc(/C=C2\SC(=O)NC2=O)cc1OC | 16.6% | –
O=C1NC(=O)/C(=C/c2ccccc2)S1 | 16.9% | –
O=C1NC(=S)NC(=O)C1=Cc1ccc(O)cc1 | 14.2% | –
O=C1NC(=S)NC(=O)C1=Cc1ccccc1O | 8.9% | –
COc1cc(C=C2C(=O)NC(=O)NC2=O)ccc1O | 4.1% | –
COc1cc(/C=C2\SC(=N)NC2=O)ccc1O | 19.9% | –
COc1ccc(C=C2C(=O)NC(=S)NC2=O)cc1 | 27.4% | Activity (Mus musculus [5]): Active; Activity (Mus musculus [2]): 3141.2 U/L; IC50 (RAW264.7 [3]): 11.2 µM; Activity (Mus musculus [4]): 2109.7 U/L
COc1cc(/C=C2\NC(=O)NC2=O)ccc1O | 16.6% | –
N=C1NC(=O)/C(=C/c2ccc(O)cc2)S1 [MIRIN] | 4.4% | –
COc1cc(C=C2C(=O)NC(=S)NC2=O)ccc1O | 14.4% | –
O=C1NC(=S)NC(=O)C1=Cc1cccc(O)c1 | 5.7% | –
COc1ccc(/C=C2\SC(=O)NC2=O)cc1 | 57.8% | Tmax [6]: 0.5 h; Activity (Mus musculus [5]): Active; Activity (Mus musculus [2]): 677.7 U/L; IC50 (RAW264.7 [3]): 0.72 µM; Activity (Mus musculus [7]): Non-toxic; Activity (Mus musculus [4]): 620 U/L; Activity (Mus musculus [8]): Non-toxic; Activity (Mus musculus [9]): Non-toxic; half-life [10]: 3.37 h; bioavailability [11]: 14.9%; Cp (Mus musculus [12]): 4980 ng/mL; Activity (Mus musculus [13]): Non-toxic; Activity (Mus musculus [14]): Non-toxic; Activity (Mus musculus [15]): Non-toxic
COc1ccc(C=C2C(=O)NC(=O)NC2=O)cc1OC | 14.2% | –
COc1cc(/C=C2\SC(=O)NC2=O)ccc1O | 15.8% | –
